According to PMC11324666, “Two novel in vitro assays to screen chemicals for their capacity to inhibit thyroid hormone transmembrane transporter proteins OATP1C1 and OAT4” (Archives of Toxicology, 2024):

Assays:
OAT4 = biological target: T1, OAT4 (Homo sapiens, UniProt Q9NSA0); test: MDCK-OAT4 TH uptake assay with 125I-T4 tracer; format: cell-based; conditions: for T4 uptake inhibition BMC20 (M), [CI]: concentration that inhibits 125I-T4 uptake by 20%, brackets = 95% CI; for T4 uptake inhibition BMC20 (M), [CI] / 125I-T4 uptake compared to the vehicle control (range finding): 10 nM T4, 20 min; for 125I-T4 uptake compared to the vehicle control (range finding): single concentration 10 or 100 µM, below 80% = positive hit
T1 construct: V5 (from pLenti6/V5-DEST); expressed in transfected cells; host or cells: MDCK-1 (lentiviral transduction, blasticidin selection)
T1 sequence (Q9NSA0 1-550): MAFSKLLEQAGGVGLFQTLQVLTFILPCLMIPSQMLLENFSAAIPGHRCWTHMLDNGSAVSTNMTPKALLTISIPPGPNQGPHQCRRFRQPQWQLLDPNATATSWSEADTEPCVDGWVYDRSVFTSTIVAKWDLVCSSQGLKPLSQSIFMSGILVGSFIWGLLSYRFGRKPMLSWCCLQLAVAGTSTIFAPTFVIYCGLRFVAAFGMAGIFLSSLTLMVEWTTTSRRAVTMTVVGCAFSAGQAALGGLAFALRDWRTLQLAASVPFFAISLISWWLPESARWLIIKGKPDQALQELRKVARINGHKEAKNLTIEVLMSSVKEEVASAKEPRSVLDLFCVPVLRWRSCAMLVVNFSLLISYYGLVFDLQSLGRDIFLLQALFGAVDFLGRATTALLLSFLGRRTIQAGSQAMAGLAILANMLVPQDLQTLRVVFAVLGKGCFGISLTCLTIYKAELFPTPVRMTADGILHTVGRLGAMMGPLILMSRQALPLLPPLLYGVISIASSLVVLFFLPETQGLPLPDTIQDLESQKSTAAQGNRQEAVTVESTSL
Protocol: Subsequently OAT4 in pENTR™/D-TOPO® Vector was shuffled into the pLenti6/V5-DEST vector (Thermo Fisher) using Gateway™ LR Clonase™ II Enzyme mix (Thermo Fisher) according to the manufacture’s protocol.
To generate an OAT4 stable cell line, MDCK-1 cells were plated in 12-well plates with full growth medium and transduced with fresh viral supernatants in the absence of antibiotics in medium. After 2 days, MDCK-1 cells transduced with OAT4 (MDCK-OAT4) or empty vector (MDCK-DEST) were selected in full growth medium supplemented with 2 µg/mL blasticidin and further maintained under blasticidin selection.
MDCK-OAT4 and MDCK-DEST cells were cultured in DMEM:F12 (L-glutamine, 15 mM HEPES) (Gibco) supplemented with (100 µg/mL penicillin + 100 µg/mL streptomycin), 10% fetal calf serum (Gibco) and 2 µg/mL blasticidin (Sigma). CHO-K1 OATP1C1 or WT cells were cultured in F12 nutrient mix (Gibco) supplemented with (100 µg/mL penicillin + 100 µg/mL streptomycin), 10% fetal calf serum (Gibco) and […] G418 (Sigma). All cell cultures were incubated at 37 °C with 5% CO2 saturation until 80% confluency. MDCK-OAT4 and MDCK-DEST cells were seeded in 96 wells plate at a density of 4 × 10^5 cells in 100 µL medium per well and incubated for 24 h before the start of the MDCK-OAT4 TH uptake assay. CHO-K1 OATP1C1 and WT cells were seeded in 96 wells plate at a density of 3 × 10^5 cells in 100 µL medium per well 72 h before the CHO-K1 OATP1C1 TH uptake assay. Medium from CHO-K1 OATP1C1 or WT assay plates was changed to serum-free F12 medium containing 5 mM sodium-butyrate 24 h before start of the CHO-K1 OATP1C1 TH uptake assay to increase transfected expression of SV-40 promotor plasmids.
Subsequently 10 µL of a tenfold stock of test compound in uptake buffer (solvent concentration 1% v/v) was added to each well. […] Cells were exposed at 37 °C for 20 min (MDCK-OAT4) or 30 min (CHO-K1 OATP1C1), unless stated differently. After exposure, cells were immediately washed with ice-cold PBS supplemented with 0.1% bovine serum albumin (BSA). Subsequently, cells were lysed in 50 µL of 0.1 M NaOH under continuous shaking at room temperature. After 20 min, cell lysates were manually transferred into separate 5 mL polypropylene tubes. One tube was also prepared with 10 µL of the T4 tracer solution. Radioactivity was measured in a Wizard^2 gamma counter (Perkin Elmer).
For the CHO-K1 OATP1C1 TH uptake assay total of 29 chemicals (Table 1) were selected for the EDC screening based on available literature data. […] The same chemicals were selected for the MDCK-OAT4 TH uptake assay, with the exception of BPF, VRP and TCS. […] The THTMT TH uptake assay was then performed as described earlier. […] A concentration of 100 µM ICG was used as a reference chemical for OATP1C1 and 100 µM LESI for OAT4. At least three independent experiments were performed for each chemical. Each individual experiment contained three technical replicates of each control and concentration tested.
Raw values were normalized to the total amount of radioactivity in the T4 tracer solution. These values were expressed as a percentage of total radioactivity added (or uptake percentage) and used for all further data analysis. Statistically significant differences between the T4 uptake of transfected and wild type cells, in the presence or absence of inhibitor, were determined by two-way ANOVA (α = 5%, two-sided). […] In brief, uptake values were normalized to the median response of the vehicle and positive controls for each plate. […] Statistical analysis were performed using GraphPad Prism version 8 for Windows (GraphPad Software, San Diego, California USA) and SAS 9.3 (SAS Institute, Cary NC).

CHO-K1 OATP1C1 cells = conditions: for Cytotoxicity IC10: concentration that inhibits cell viability by 10%, CHO-K1 OATP1C1 cells, 30 min exposure
Protocol: Cell viability was assessed through the quantitation of ATP present in cells using the commercially available CellTiter-Glo® luminescent cell viability assay and performed according to the manufacturer’s instruction (Promega, Leiden, the Netherlands). Briefly, cells were seeded as described earlier in opaque-walled clear-bottom 96 well plates. On the day of the experiment, each well was washed with 200 µL phosphate buffered saline (PBS) and exposed to 80 µL of uptake buffer, 10 µL of a tenfold stock of test compound solved in uptake buffer or control and 10 µL of T4 (final concentration 10 nM). 0.1% DMSO was used as a solvent control, while 10% DMSO was used as a positive control. After exposure for the indicated times similar to THTMT TH uptake assay, cells were immediately washed with ice-cold PBS + 0.1%BSA and exposed to 100 µL of the CellTiter-Glo® Reagent. Plates were then shaken on an orbital shaker for 2 min and left to incubate at room temperature for 10 min. Luminescence was measured on a BioTek Cytation 5 microplate reader. […] Each individual experiment was repeated at least twice and contained three technical replicates of each control and concentration tested.
Figure S1. […] Blue dots indicate the plate medians from three or four independent experiments, all control and chemical concentrations were tested in triplicates per plate.

Compound | T4 uptake inhibition BMC20 (M), [CI] (OAT4) | Cytotoxicity IC10 (CHO-K1 OATP1C1 cells) | BMC20 (20% reduction in T4 uptake) (OAT4) | 125I-T4 uptake compared to the vehicle control (range finding) (OAT4) | cytotoxic effects (CHO-K1 OATP1C1 cells; at concentrations of the uptake assay, Figure S1)
O=C(O)C(F)(F)C(F)(F)C(F)(F)C(F)(F)C(F)(F)C(F)(F)C(F)(F)F [Perfluorooctanoic acid] | 1.38E−06 [4.27E−07; 4.44E−06] M | > 100 µM | – | – | –
O=C1OC(c2ccc(O)c(S(=O)(=O)O)c2)(c2ccc(O)c(S(=O)(=O)O)c2)c2c(Br)c(Br)c(Br)c(Br)c21 [Bromosulfophthalein, reference compound] | 7.25E−08 [3.85E−08; 1.36E−07] M | > 100 µM | 0.072 µM | below 80% | –
CC(C)(c1cc(Br)c(O)c(Br)c1)c1cc(Br)c(O)c(Br)c1 [Tetrabromobisphenol A, Tetrabromobisphenol-A] | 6.49E−07 [4.32E−07; 9.74E−07] M | > 0.3 µM | – | below 80% | –
Oc1c(Cl)c(Cl)c(Cl)c(Cl)c1Cl [Pentachlorophenol] | 2.65E−05 [2.17E−05; 3.23E−05] M | > 18.5 µM | – | – | –
CC1(C)C(/C=C/C=C/C=C/C=C2\N(CCCCS(=O)(=O)O)c3ccc4ccccc4c3C2(C)C)=[N+](CCCCS(=O)(=O)[O-])c2ccc3ccccc3c21 [Indocyanine green, reference compound] | 1.68E−05 [1.20E−05; 2.33E−05] M | > 100 µM | – | – | –
CO[C@H]1/C=C/O[C@@]2(C)Oc3c(C)c(O)c4c(O)c(c(/C=N/N5CCN(C)CC5)c(O)c4c3C2=O)NC(=O)/C(C)=C\C=C\[C@H](C)[C@H](O)[C@@H](C)[C@@H](O)[C@@H](C)[C@H](OC(C)=O)[C@@H]1C [Rifampicin, reference compound] | 1.02E−05 [4.85E−06; 2.14E−05] M | > 100 µM | – | – | –
O=S(=O)([O-])c1cc(S(=O)(=O)O)ccc1C1=c2cc3c4c(c2Oc2c1cc1c5c2CCCN5CCC1)CCC[N+]=4CCC3 [Sulforhodamine 101, reference compound] | – | > 10 µM | – | ≥ 80% | –
CCCN(CCC)S(=O)(=O)c1ccc(C(=O)O)cc1 [Probenecid, reference compound] | 3.65E−05 [2.69E−05; 4.61E−05] M | > 100 µM | – | – | –
Oc1ccc(Cc2ccc(O)cc2)cc1 [Bisphenol F, Bisphenol-F] | – | > 100 µM | – | below 80% | –
O=c1c(O)c(-c2ccc(O)c(O)c2)oc2cc(O)cc(O)c12 [Quercetin] | 1.23E−05 [4.77E−06; 3.16E−05] M | > 100 µM | – | – | –
Oc1ccc(C(c2ccc(O)cc2)(C(F)(F)F)C(F)(F)F)cc1 [Bisphenol AF, Bisphenol-AF] | 5.39E−06 [1.65E−06; 1.76E−05] M | 0.909 µM | – | – | confounded by cytotoxic effects
COc1cc([C@@H]2Oc3c(O)cc([C@H]4Oc5cc(O)cc(O)c5C(=O)[C@@H]4O)cc3[C@H]2CO)ccc1O [Silychristin, reference compound] | – | > 10 µM | – | ≥ 80% | –
O=S(=O)(O)C(F)(F)C(F)(F)C(F)(F)C(F)(F)C(F)(F)C(F)(F)C(F)(F)C(F)(F)F [Perfluorooctanesulfonic acid] | 1.44E−06 [4.08E−07; 5.05E−06] M | > 100 µM | – | below 80% | –
